Measurements from US12590099B2, “Inhibitors of histone deacetylase useful for the treatment or prevention of HIV infection” (Merck Sharp & Dohme LLC, priority 2018, dated 2026).

Columns and labels:
Assay type in all cases: biochemical
Recombinant human HDAC2 = biological target: T1, Recombinant human HDAC2 (Homo sapiens, UniProt Q92769); assay: Human HDAC enzyme inhibitor Fluor-de-Lys assay, HDAC2; conditions: recombinant human HDAC2, Fluor-de-Lys assay
T1 construct: Full length human HDAC2-FLAG was expressed in baculovirus infected Sf9 cells; FLAG (C); made in house; host or cells: Sf9 (baculovirus)
T1 sequence (Q92769 whole entry): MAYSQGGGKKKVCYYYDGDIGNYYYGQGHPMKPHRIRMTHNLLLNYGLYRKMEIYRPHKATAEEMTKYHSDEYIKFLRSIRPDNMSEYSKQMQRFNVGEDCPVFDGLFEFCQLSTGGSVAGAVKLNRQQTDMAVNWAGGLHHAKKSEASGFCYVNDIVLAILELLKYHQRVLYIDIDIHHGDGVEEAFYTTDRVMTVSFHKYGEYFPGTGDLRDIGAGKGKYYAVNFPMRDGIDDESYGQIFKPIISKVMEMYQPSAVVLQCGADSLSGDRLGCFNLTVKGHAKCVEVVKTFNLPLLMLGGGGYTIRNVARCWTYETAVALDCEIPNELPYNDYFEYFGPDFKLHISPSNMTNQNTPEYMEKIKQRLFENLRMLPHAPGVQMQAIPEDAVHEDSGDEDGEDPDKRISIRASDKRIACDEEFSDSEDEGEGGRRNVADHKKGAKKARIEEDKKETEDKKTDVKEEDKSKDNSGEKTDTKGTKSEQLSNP
Summary of the method: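 Fluor-de-Lys format at room temperature (23° C.): compounds titrated 10-point, 1:3, preincubated with HDAC before substrate addition. Developer with excess HDAC inhibitor ends the reaction, and trypsin-liberated AMC fluorescence is the read-out.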

HDAC6 = biological target: T2, HDAC6 (Homo sapiens, UniProt Q9UBN7); assay: Human HDAC enzyme inhibitor Fluor-de-Lys assay, HDAC6; conditions: HDAC6, Fluor-de-Lys assay
T2 sequence (Q9UBN7 1-1215): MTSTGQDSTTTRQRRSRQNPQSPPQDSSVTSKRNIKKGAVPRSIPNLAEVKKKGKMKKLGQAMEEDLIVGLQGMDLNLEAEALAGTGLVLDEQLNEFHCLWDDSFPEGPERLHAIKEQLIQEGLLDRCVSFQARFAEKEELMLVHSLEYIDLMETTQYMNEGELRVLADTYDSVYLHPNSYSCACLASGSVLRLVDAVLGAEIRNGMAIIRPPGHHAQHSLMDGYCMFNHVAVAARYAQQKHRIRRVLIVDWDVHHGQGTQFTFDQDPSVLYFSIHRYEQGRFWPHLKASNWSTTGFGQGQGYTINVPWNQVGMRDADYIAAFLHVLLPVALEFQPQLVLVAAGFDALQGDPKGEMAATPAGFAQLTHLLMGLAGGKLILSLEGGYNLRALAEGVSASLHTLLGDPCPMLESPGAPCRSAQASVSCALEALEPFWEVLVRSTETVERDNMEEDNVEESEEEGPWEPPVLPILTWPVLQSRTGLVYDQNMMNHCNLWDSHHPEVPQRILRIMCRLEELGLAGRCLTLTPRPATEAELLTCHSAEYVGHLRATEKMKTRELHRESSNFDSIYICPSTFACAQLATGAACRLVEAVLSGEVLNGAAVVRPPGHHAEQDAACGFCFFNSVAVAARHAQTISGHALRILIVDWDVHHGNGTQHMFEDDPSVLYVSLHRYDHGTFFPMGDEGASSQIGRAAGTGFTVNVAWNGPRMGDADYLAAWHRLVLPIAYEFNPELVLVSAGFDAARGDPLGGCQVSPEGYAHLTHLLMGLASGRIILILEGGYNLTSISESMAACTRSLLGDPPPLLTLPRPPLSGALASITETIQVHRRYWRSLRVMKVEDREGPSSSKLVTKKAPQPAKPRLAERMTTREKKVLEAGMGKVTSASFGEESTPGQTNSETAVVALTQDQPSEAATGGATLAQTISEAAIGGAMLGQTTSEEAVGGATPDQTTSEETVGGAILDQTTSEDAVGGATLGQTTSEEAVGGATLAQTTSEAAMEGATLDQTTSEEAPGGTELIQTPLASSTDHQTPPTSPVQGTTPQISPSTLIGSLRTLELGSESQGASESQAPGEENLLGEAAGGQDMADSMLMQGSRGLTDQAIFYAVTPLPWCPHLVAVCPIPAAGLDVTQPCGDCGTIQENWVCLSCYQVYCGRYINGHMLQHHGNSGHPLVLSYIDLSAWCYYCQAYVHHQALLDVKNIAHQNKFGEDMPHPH

Recombinant human HDAC1 = biological target: T3, Recombinant human HDAC1 (Homo sapiens, UniProt Q13547); assay: Human HDAC enzyme inhibitor Fluor-de-Lys assay, HDAC1; conditions: recombinant human HDAC1, Fluor-de-Lys assay
T3 construct: FLAG (C); made in house
T3 sequence (Q13547 whole entry): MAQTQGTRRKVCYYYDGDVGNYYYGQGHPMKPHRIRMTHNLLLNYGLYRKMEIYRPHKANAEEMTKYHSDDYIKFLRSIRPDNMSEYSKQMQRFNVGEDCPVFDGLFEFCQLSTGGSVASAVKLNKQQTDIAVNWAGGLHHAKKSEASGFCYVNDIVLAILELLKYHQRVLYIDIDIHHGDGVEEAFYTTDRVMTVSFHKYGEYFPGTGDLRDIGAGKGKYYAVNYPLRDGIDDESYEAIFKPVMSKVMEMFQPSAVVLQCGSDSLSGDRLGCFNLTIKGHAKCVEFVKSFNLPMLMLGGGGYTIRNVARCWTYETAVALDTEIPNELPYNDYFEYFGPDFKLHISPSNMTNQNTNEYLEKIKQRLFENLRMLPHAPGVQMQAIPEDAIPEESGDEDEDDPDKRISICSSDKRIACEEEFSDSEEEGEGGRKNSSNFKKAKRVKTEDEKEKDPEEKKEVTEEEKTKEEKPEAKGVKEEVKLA
Summary of the method: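 Fluor-de-Lys format at room temperature (23° C.): compounds titrated 10-point, 1:3, preincubated with HDAC before substrate addition; HDAC1 run at 0.3 nM enzyme with 20 μM BML-KI104. Developer with excess HDAC inhibitor ends the reaction, and trypsin-liberated AMC fluorescence is the read-out.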

[1] = biological target: T4, Recombinant human HDAC3/SMRT heterodimer (Homo sapiens, UniProt O15379); assay: Human HDAC enzyme inhibitor Fluor-de-Lys assay, HDAC3/SMRT; conditions: recombinant human HDAC3/SMRT, Fluor-de-Lys assay
T4 construct: FLAG (C); made in house
T4 sequence (O15379 whole entry): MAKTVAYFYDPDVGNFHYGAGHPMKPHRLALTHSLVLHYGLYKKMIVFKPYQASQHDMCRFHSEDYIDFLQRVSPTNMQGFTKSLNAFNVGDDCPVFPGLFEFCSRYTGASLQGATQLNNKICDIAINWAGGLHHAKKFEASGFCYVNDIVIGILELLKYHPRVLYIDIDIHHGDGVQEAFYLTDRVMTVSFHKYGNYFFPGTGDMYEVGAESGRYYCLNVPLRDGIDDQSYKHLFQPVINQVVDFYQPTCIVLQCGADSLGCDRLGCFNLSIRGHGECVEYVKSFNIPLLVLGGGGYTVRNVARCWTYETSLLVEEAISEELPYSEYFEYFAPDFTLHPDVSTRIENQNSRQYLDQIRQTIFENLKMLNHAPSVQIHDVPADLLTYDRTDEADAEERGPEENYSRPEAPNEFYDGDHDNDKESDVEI
T4 sequence (Q9Y618 1-899 partner limits assumed): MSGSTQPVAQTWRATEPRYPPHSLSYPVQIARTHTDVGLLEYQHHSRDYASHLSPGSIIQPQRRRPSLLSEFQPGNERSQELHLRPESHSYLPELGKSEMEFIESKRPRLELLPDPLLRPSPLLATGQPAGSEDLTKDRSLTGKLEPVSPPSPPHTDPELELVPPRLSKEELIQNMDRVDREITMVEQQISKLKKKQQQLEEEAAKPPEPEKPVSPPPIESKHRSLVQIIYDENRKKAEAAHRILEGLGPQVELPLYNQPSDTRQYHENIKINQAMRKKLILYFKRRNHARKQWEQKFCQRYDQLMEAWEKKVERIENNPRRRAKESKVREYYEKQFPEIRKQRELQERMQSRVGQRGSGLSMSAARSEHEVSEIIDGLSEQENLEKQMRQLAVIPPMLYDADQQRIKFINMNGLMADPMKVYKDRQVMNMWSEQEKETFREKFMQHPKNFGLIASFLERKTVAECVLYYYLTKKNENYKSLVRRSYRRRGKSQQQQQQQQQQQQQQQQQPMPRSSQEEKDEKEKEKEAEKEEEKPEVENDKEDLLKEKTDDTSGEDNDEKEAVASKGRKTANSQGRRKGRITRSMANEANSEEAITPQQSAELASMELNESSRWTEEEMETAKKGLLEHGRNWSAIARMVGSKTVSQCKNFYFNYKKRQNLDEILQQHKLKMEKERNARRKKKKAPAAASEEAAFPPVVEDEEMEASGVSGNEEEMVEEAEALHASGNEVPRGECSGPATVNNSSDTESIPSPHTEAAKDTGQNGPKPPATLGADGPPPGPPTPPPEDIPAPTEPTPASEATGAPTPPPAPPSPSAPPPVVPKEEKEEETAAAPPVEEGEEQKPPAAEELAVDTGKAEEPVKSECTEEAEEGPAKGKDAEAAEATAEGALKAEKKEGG

Row | Structure (SMILES) | IC50 (Recombinant human HDAC2) | IC50 (HDAC6) | IC50 (Recombinant human HDAC1) | IC50 [1]
1 | CCC(=O)CCCCC[C@H](NC(=O)[C@H]1CC12CCN(CC1CC1)CC2)c1ncc(-c2cc3ccc(=O)n(C)c3cc2F)o1 [Compound 400] | 39.7 nM | > 900 nM | 6.41 nM | –
2 | CCC(=O)CCCCC[C@H](NC(=O)C1=NOC2(CCN(S(C)(=O)=O)CC2)C1)c1nnc(-c2cc3ccccc3nc2OC)o1 [Compound 371] | 287 nM | 4660 nM | 86.7 nM | –
3 | CCC(=O)CCCCC[C@H](NC(=O)[C@H]1CC[C@]2(CC1)OC(=O)c1ccncc12)c1ncc(-c2ccccc2)[nH]1 [Compound 376] | 239 nM | 10800 nM | 49.9 nM | 9.02 nM
4 | CCC(=O)CCCCC[C@H](NC(=O)C1=NOC2(CCN(C)CC2)C1)c1ncc(-c2cc3ccc(=O)n(C)c3cc2F)o1 [Compound 386] | 54.7 nM | > 900 nM | 7.82 nM | 12.4 nM
5 | CCC(=O)CCCCC[C@H](NC(=O)C1=NOC2(CCN(S(C)(=O)=O)CC2)C1)c1ncc(-c2ccccc2)[nH]1 [Compound 383] | 427 nM | 16100 nM | 96.5 nM | 16.7 nM
6 | CCC(=O)CCCCCC(CC)(NC(=O)[C@H]1CC12CCN(CC1CC1)CC2)c1nc(-c2cc3ccc(C)nc3cc2OC)c[nH]1 (stereo partly drawn) [Compound 420, (1S)-6-(cyclopropylmethyl)-N-{3-[4-(7-methoxy-2-methylquinolin-6-yl)-1H-imidazol-2-yl]-9-oxoundecan-3-yl}-6-azaspiro[2.5]octane-1-carboxamide] | 330 nM | > 900 nM | 484 nM | 328 nM
7 | CCN[C@@H](CCCCCC(=O)CC)c1ncc(-c2cc3ccc(C)nc3cc2OC)[nH]1 [Compound 403] | > 900 nM | > 900 nM | 248 nM | 283 nM
8 | CCCC(=O)CCCCC[C@H](NC(=O)[C@H]1CC12CCN(CC1CC1)CC2)c1ncc(-c2cc3ccc(C)nc3cc2OC)[nH]1 [Compound 416] | 4.5 nM | > 900 nM | < 1.58 nM | 1.11 nM
9 | CCC(=O)CCCCC[C@H](NC(=O)[C@H]1CC12CCN(C)CC2)c1ncc(-c2cc3ccc(N(C)C)nc3cc2OC)o1 [Compound 406] | 2.5 nM | > 900 nM | 0.83 nM | 1.05 nM
10 | CCC(=O)CCCCC[C@H](NC(=O)C1=NOC2(CCN(C)CC2)C1)c1ncc(-c2cc3ccc(N(C)C)nc3cc2OC)o1 [Compound 397] | 6.6 nM | > 900 nM | 1.36 nM | 2.66 nM
11 | CCC(=O)CCCCC[C@H](NC(=O)C1=NOC2(CCN(C(C)=O)CC2)C1)c1ncc(-c2ccccc2)[nH]1 [Compound 380] | 326 nM | 16200 nM | 69.8 nM | 8.92 nM
12 | CCC(=O)CCCCC[C@H](NC(=O)[C@H]1CC12CCN(C)CC2)c1ncc(-c2cc3ocnc3cc2F)o1 [Compound 389] | 98.3 nM | > 900 nM | 21.4 nM | 30.2 nM
13 | CCC(=O)CCCCC[C@H](NC(=O)[C@H]1CC[C@]2(CC1)OC(=O)c1cccnc12)c1nnc(-c2cc3ccccc3nc2OC)o1 [Compound 368] | 149 nM | 2380 nM | 50.5 nM | 20.6 nM
14 | CCC(=O)CCCCC[C@H](NC(=O)[C@H]1CC12CCN(C)CC2)c1ncc(-c2cc3ccncc3cc2OC)o1 [Compound 405] | 2 nM | 163 nM | 0.3 nM | 0.7 nM
15 | CCC(=O)CCCCC[C@H](NC(=O)[C@H]1CC[C@@]2(CC1)OC(=O)c1ncccc12)c1ncc(-c2ccccc2)[nH]1 [Compound 374] | 423 nM | 11200 nM | 92.7 nM | 15.8 nM
16 | CCC(=O)CCCCC[C@H](NC(=O)[C@H]1CC[C@@]2(CC1)OC(=O)c1cnccc12)c1ncc(-c2ccccc2)[nH]1 [Compound 373] | 423 nM | 10100 nM | 95.6 nM | 18.8 nM
17 | CCC(=O)CCCCC[C@H](NC(=O)[C@H]1CC[C@]2(CC1)OC(=O)c1cccnc12)c1ncc(-c2ccccc2)[nH]1 [Compound 378] | 220 nM | 10800 nM | 46 nM | 7.08 nM
18 | CCC(=O)CCCCC[C@H](NC(=O)C1=NOC2(CCN(C(C)C)CC2)C1)c1ncc(-c2ccccc2)[nH]1 [Compound 379] | 100 nM | 8590 nM | 21.9 nM | 4.77 nM
19 | CCC(=O)CCCCC[C@H](NC(=O)[C@H]1CC12CCN(CC1CC1)CC2)c1ncc(-c2ccc3nc(C)ccc3c2)[nH]1 [Compound 393] | 0.1 nM | 325 nM | 0.05 nM | 0.05 nM
20 | CCC(=O)CCCCC[C@H](NC(=O)C1=NOC2(CCN(C)CC2)C1)c1nnc(-c2cc3ccccc3nc2OC)o1 [Compound 370] | 41.8 nM | 1740 nM | 10.8 nM | 8.87 nM
21 | CCC(=O)CCCCC[C@H](NC(=O)C1=NOC2(CCN(C)CC2)C1)c1ncc(-c2ccccc2)[nH]1 [Compound 382] | 146 nM | 12100 nM | 32.9 nM | 8.02 nM
22 | CCC(=O)CCCCCC(NC(=O)C1CCC2(CC1)OC(=O)c1ncccc12)c1nnc(-c2cc3ccccc3nc2OC)o1 (stereo not shown) [Compound 365] | 208 nM | 1940 nM | 61.2 nM | 23.2 nM
23 | CCC(=O)CCCCC[C@H](NC(=O)C1=NOC2(CCN(C(=O)OC)CC2)C1)c1ncc(-c2ccccc2)[nH]1 [Compound 381] | 637 nM | 32300 nM | 179 nM | 26.1 nM
24 | CCC(=O)CCCCC[C@H](NCC1CN(C)C1)c1ncc(-c2cc3ccc(C)nc3cc2OC)o1 [Compound 401, (9S)-9-[5-(7-methoxy-2-methylquinolin-6-yl)-1,3-oxazol-2-yl]-9-{[(1-methylazetidin-3-yl)methyl]amino}nonan-3-one] | 179 nM | > 900 nM | 32.1 nM | 51.3 nM
25 | CCC(=O)CCCCC[C@H](NC(=O)C1CC12CCOCC2)c1ncc(-c2cc3ccc(C)nc3cc2OC)[nH]1 (single isomer, unassigned) [Compound 407] | 20.2 nM | > 900 nM | 0.9 nM | 3.68 nM
26 | CCC(=O)CCCCC[C@H](NC(=O)C1=NOC2(CCN(CC3CC3)CC2)C1)c1ncc(-c2cc3ccc(=O)n(C)c3cc2F)o1 [Compound 387] | 207 nM | > 900 nM | 25.8 nM | 48.1 nM
27 | CCC(=O)CCCCC[C@H](NC(=O)[C@H]1CC[C@@]2(CC1)OC(=O)c1cccnc12)c1ncc(-c2ccccc2)[nH]1 [Compound 375] | 479 nM | 10200 nM | 117 nM | 19.9 nM
28 | CCC(=O)CCCCC[C@H](NC(=O)C1CC12CCOCC2)c1ncc(-c2cc3ccc(C)nc3cc2OC)o1 (single isomer, unassigned) [Compound 409] | 100 nM | > 900 nM | 10.5 nM | –
29 | CCC(=O)CCCCC[C@H](NC(=O)C1CC12CCOCC2)c1ncc(-c2cc3ccc(C)nc3cc2OC)o1 (single isomer, unassigned) [Compound 410] | 143 nM | > 900 nM | 17.5 nM | –
30 | CCC(=O)CCCCC[C@H](NC(=O)C1=NOC2(CCN(C(C)C)CC2)C1)c1nnc(-c2cc3ccccc3nc2OC)o1 [Compound 369] | 68.2 nM | 2500 nM | 18.5 nM | –
